Activity calls are given as the source filed them.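 The calls were made as follows: active = maximal inhibition of the USP30 enzyme reaching 30% or more across the dose series; inactive = the rest.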

Chain of Ubiquitin carboxyl-terminal hydrolase 30 (Homo sapiens) (Q70CQ3 whole entry, looked up): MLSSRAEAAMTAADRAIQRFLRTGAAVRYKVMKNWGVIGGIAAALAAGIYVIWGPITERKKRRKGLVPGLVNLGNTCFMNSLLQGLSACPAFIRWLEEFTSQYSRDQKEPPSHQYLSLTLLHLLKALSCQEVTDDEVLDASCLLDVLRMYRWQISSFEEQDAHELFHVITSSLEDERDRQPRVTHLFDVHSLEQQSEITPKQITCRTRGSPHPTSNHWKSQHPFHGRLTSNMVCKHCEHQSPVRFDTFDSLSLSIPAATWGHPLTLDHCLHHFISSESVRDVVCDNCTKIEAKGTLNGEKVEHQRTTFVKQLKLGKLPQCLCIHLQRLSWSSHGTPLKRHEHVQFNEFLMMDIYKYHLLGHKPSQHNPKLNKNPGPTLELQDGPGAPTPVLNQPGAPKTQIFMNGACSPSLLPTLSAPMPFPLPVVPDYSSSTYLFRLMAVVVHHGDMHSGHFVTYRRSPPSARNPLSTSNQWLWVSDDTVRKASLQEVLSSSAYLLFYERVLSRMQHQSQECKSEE

This test addresses Ubiquitin carboxyl-terminal hydrolase 30 (Homo sapiens) (UniProt Q70CQ3). Briefly: inhibitors of ubiquitin-specific protease 30 deubiquitylating enzyme, concentration dependence, in vitro biochemical, validation of primary hits (AID 1645865). The conditions noted are these: purified USP30, Ub-rhodamine cleavage, fluorescence, 2 h.
As for `Fc1cccc(Cn2cc(-c3noc(-c4cccnc4)n3)nn2)c1`, the IC50 – broadly, the concentration needed to halve the response being measured – was 26.4 µM.

As to `Cc1noc(-c2cccc(=O)n2CC(=O)Nc2ccc(C)c(C)c2)n1`, the IC50 was 25 µM.

Regarding `COc1ccc(OC)c(NC(=O)CS(=O)(=O)c2cn(CC(=O)N3CCC(C)CC3)c3ccccc23)c1`, the IC50 is 42 µM.

For `O=C(CSc1ncnc2c1oc1ccccc12)NC1CCCC1`, the concentration for half-maximal inhibition (IC50) was 20.7 µM.

With `Cn1nc(-c2ccccc2)c(COC(=O)c2ccc([N+](=O)[O-])cc2)c1Cl`, the IC50 was 23.4 µM.

For `Cc1nn(Cc2ccccc2)c(C)c1C(=O)NC1CCCc2ccccc21` (centres undefined), the IC50 is > 50 µM (inactive).

Consider `CC1=C(c2ccc(C)c(C)c2)S(=O)(=O)NC1=NCC(=O)NCCCc1ccccc1`, for which the IC50 was 19.7 µM.

For `Cc1ccc(NC(=O)c2nnn(-c3ccccc3)n2)cc1F`, the IC50 was > 50 µM (inactive).

Turning to `CCn1cc(-c2nc(-c3ccccn3)no2)c(=O)c2cc(F)ccc21`, the IC50 was 23.1 µM.

For the compound `COc1cccc(N2CCN(C(=O)c3cc(NC(C)=O)cc4nc(C)ccc34)CC2)c1`, the IC50 is > 50 µM (inactive).

Consider `O=C(Nc1nnc2n1CCCS2)c1cccc(Cl)c1`, for which the IC50 is > 50 µM (inactive).

Consider `Cc1ccc(NCc2cc3c(C(C)(C)C)nn(-c4ccc(Cl)cc4)c3[nH]c2=O)cc1`, for which the IC50 is > 50 µM (inactive).

Consider `CSc1ncc(C(=O)NC(C)c2ccccc2)c(-c2ccccc2)n1` (centres undefined), for which the IC50 is 21.9 µM.

In the case of `Cn1c(=O)sc2cc(NC(=O)c3ccc(Br)cc3)ccc21`, the IC50 was 2.21 µM.

Take `COCC(=O)Nc1cc(F)c2nc(N3CCOCC3)ccc2c1`: the IC50 was > 50 µM (inactive).

Take `COc1cnc(-c2ccccn2)nc1Sc1ccc(C)cc1`: the IC50 is 25.7 µM.

Turning to `CCOc1ccc(-c2noc(-c3nn(-c4cccc(OC)c4)ccc3=O)n2)cc1`, the IC50 was 3.45 µM.

In the case of `O=C(NCCCc1nc2ccccc2n1Cc1c(Cl)cccc1Cl)c1ccco1`, the 50% inhibitory concentration (IC50) was 25 µM.

`CCN(c1ccc(NC(=O)CSc2nnc(-c3ccccc3)n2-c2ccc(OC)c(OC)c2)cc1)C(C)C`: the half-inhibitory concentration (IC50) is 2.07 µM.

For the compound `O=C(Nc1cc(-c2cccnc2)no1)c1ccc(F)c(F)c1`, the IC50 is 20 µM.

Take `C=C(NC(=O)C(=C)NC(=O)c1csc(-c2ccc3c(n2)-c2csc(n2)-c2csc(n2)C(C(C)C2CO2)NC(=O)C(Cc2ccc(O)cc2)NC(=O)c2csc(n2)C(C(O)c2ccccc2)NC(=O)c2nc(sc2C)C(CC(N)=O)NC(=O)c2csc-3n2)n1)C(=O)O` (centres undefined): the IC50 is > 50 µM (inactive).

On to `CCOc1ccc(NC(=O)c2nc3c(=O)[nH]c4cc(C)ccc4n3n2)cc1`, for which the IC50 is > 50 µM (inactive).

As for `CSc1ncccc1C(=O)NC1(O)C(=O)c2ccccc2C1=O`, the IC50 is 29.5 µM.

For `Cc1ccc2nc(N3CCc4ccccc4C3)c3nncn3c2c1`, the IC50 was > 50 µM (inactive).

Turning to `O=C(Cc1cc(-c2ccc(F)cc2)on1)NCc1ccccc1`, the IC50 was 18.3 µM.

As for `COc1ccc(-c2cc(N3CCC(NC(=O)c4ccccc4)C3)n[nH]2)cc1` (centres undefined), the IC50 was 19.8 µM.

Consider `CC(C)CC(NC(=O)c1ccc(Cl)cc1Cl)c1nc2ccccc2[nH]1` (centres undefined), for which the IC50 was > 50 µM (inactive).

As to `O=C(CCC1CCCCC1)Nc1ccccc1C(=O)N1CCOCC1`, the IC50 is > 50 µM (inactive).

Consider `O=C(NCc1ccc(F)cc1)C1CCCN(c2cnc3nccnc3c2)C1` (centres undefined), for which the IC50 is > 50 µM (inactive).

As to `O=C(Nc1cccn(Cc2c(Cl)cccc2Cl)c1=O)c1ccccc1[N+](=O)[O-]`, the IC50 is > 50 µM (inactive).

Consider `C/C1=C/CC(O)/C=C/C(C)C(O)C(C)/C=C(\C)C(=O)c2c(O)c(C)cc3c2C(=O)C(Cl)=C(NC(=O)\C=C/C=C/C=C\C(C)C(O)CC1=O)C3=O` (centres undefined), for which the IC50 is > 50 µM (inactive).

With `Cc1cccc(C(=O)N2CCN3Cc4ccccc4N(C)CC3C2)c1` (centres undefined), the IC50 was > 50 µM (inactive).

Turning to `CC1CCc2c(sc3nc(CC#N)[nH]c(=O)c23)C1` (centres undefined), the IC50 is > 50 µM (inactive).

As to `Cc1ccccc1OCCSc1nc2ccccc2n1CC(=O)NC1CC1`, the IC50 is 15.5 µM.

Turning to `C=C(NC(=O)C(=C)NC(=O)c1csc(C2=N[C@@H]3c4csc(n4)[C@H]4NC(=O)c5csc(n5)[C@H]([C@](C)(O)[C@@H](C)O)NC(=O)[C@H]5CSC(=N5)/C(=C/C)NC(=O)C([C@@H](C)O)NC(=O)c5csc(n5)C3(CC2)NC(=O)[C@H](C)NC(=O)C(=C)NC(=O)[C@H](C)NC(=O)C([C@@H](C)CC)N[C@@H]2C=Cc3c(C(C)O)cc(nc3[C@H]2O)C(=O)OC4C)n1)C(N)=O` (some centres undefined), the IC50 was > 50 µM (inactive).

Regarding `CCc1ccc(-n2nc(C)c3c2NC(=O)CC3C(=O)c2ccc3c(c2)OCCO3)cc1` (centres undefined), the IC50 is 21 µM.

Consider `COc1ccc(CCNC(=O)CCCCn2c(=O)c3ccccc3n(Cc3cccc(Cl)c3)c2=O)cc1OC`, for which the IC50 is 24.6 µM.

Regarding `CC1(C(=O)NC2CCCC2)Cn2c(cc3ccccc32)C(=O)N1c1ccc(F)cc1` (centres undefined), the IC50 is > 50 µM (inactive).

For `O=c1c(Nc2cccc(F)c2)nc2ccncc2n1Cc1ccccc1`, the IC50 is 26.4 µM.

In the case of `O=C(Nc1ccccc1)c1cn2c3c(cccc3c1=O)CC2`, the IC50 is > 50 µM (inactive).

Consider `COCCCn1c(C(=O)Nc2ccccc2OC)cc2c(=O)n3ccccc3nc21`, for which the IC50 is > 5 µM (inactive).

As to `CNC(=O)C1CN(C(=O)c2ccc(OC)cc2)CC12CCCC2` (centres undefined), the IC50 is > 50 µM (inactive).

As for `O=C(NCc1ccc(Cl)cc1)Nc1cccc2ccccc12`, the IC50 is 25.3 µM.

For `O=C1CC(O)C(C2=CC(=O)c3c(O)cccc3C2=O)O1` (centres undefined), the IC50 is 4.46 µM.

As for `O=C(NC1CCN(Cc2ccccc2)CC1)c1[nH]nc2c1COc1ccccc1-2`, the IC50 was > 50 µM (inactive).

On to `COC(=O)c1ccc(Cn2cnc3ccc(F)cc3c2=O)o1`, for which the IC50 was > 50 µM (inactive).

For the compound `CC(=O)CN1CC2(CCN(Cc3ccc(F)cc3)CC2)COc2ccccc2S1(=O)=O`, the IC50 is > 50 µM (inactive).

Consider `COc1ccccc1-c1nc2c3c(ncn2n1)Oc1c(c(C)nn1-c1ccccc1)C3c1cccnc1` (centres undefined), for which the IC50 was 2.85 µM.

Consider `COc1ccc(NC(=O)C2[C@@H]3C(=O)N(C4CCCCC4)C(=O)[C@@H]3[C@H]3c4ccccc4C=CN23)cc1` (some centres undefined), for which the IC50 is > 50 µM (inactive).

Take `Nc1nc(-c2ccc[nH]2)cs1`: the IC50 was > 50 µM (inactive).

As to `O=C(O)c1ccc(C2Cc3c([nH]c(=O)[nH]c3=O)O2)cc1` (centres undefined), the IC50 was 9.78 µM.

On to `COc1ccc(CNC(=O)c2ccccc2N2C(=O)N3CCc4c([nH]c5ccccc45)[C@@]3(C)C2=O)cc1`, for which the IC50 was 27.3 µM.

Take `O=C(Nc1ccccc1)c1nc2c(s1)CCN(C(=O)c1ccccc1)CC2`: the IC50 was > 50 µM (inactive).

Turning to `O=c1ncn(Cc2ccc3c(c2)OCO3)cc1-c1ncc(C(F)(F)F)cc1Cl`, the IC50 is 48.2 µM.

For `CC1CCN(c2nc(F)c3c(c2F)S(=O)(=O)CCN3Cc2cccnc2)CC1`, the IC50 was > 50 µM (inactive).

For the compound `Cc1nn(-c2ccccc2)c2c1N=C1C(Cl)=CC(Cl)=CN1C21C(=O)Nc2ccccc21` (centres undefined), the IC50 is > 50 µM (inactive).

For `COc1ccc(C(=O)Nc2cc(F)c3nc(N4CCOCC4)ccc3c2)c(OC)c1`, the IC50 was > 50 µM (inactive).

Regarding `C/C=C(\Cl)C1=CC(=O)[C@]23C[C@H]2[C@@]2(C)CO[C@@]1(O)[C@@]3(O)O2`, the IC50 is > 50 µM (inactive).

Turning to `O=C1N[C@@H](Cc2ccccc2)C(=O)N2[C@H]3Nc4ccccc4[C@@]3([C@]34C[C@H]5C(=O)N[C@@H](Cc6ccccc6)C(=O)N5[C@H]3Nc3ccccc34)C[C@@H]12`, the IC50 is 40.3 µM.

`Cc1ccc(C2c3c(-c4ccccc4O)n[nH]c3C(=O)N2Cc2ccco2)cc1` (centres undefined): the IC50 is 21.3 µM.

For `C[C@H](NC(=O)Cc1ccccc1F)c1nc2cc(-c3ccccc3F)ncn2n1`, the IC50 was > 50 µM (inactive).

`CCOc1ccc(NC(=O)COc2cccc(-n3cnnn3)c2)cc1`: the IC50 was > 50 µM (inactive).

As to `CC(=O)Nc1ccc(O)c(-c2nc3cc(C)ccc3o2)c1`, the IC50 was 3.99 µM.

On to `O=C(Nc1cccc(Cl)c1)N1CCN(c2cc(C(F)(F)F)ccn2)CC1`, for which the IC50 was 8.77 µM.

With `Cc1cc(C)cc(NC(=O)CSc2ccc(-c3ccncc3)nn2)c1`, the IC50 was 34.6 µM.

For `O=C(Oc1ccc(-c2cnc3ccccc3n2)cc1)c1ccc(F)cc1`, the IC50 is 18.2 µM.

Take `CC(C(=O)Nc1ccccc1)n1cnc2nc(N3CCCCC3)ncc2c1=O` (centres undefined): the IC50 was > 50 µM (inactive).

As for `COc1ccc2[nH]cc(S(=O)(=O)c3ccc(C)c(F)c3)c(=O)c2c1`, the IC50 was 46.4 µM.

With `CC(C)CCN1C(=O)C2C(C(=O)Nc3ccc(Oc4ccccc4)cc3)C3C=CC2(O3)C1C(=O)NC1CCCCC1` (centres undefined), the IC50 is 32.5 µM.

On to `O=c1c2ccccc2c(-c2nc(-c3ccncc3)no2)cn1-c1ccccc1`, for which the IC50 is 2.54 µM.

On to `Cc1cc(Nc2ccc(C(=O)NCc3ccco3)cc2)n2nc(-c3cccnc3)nc2n1`, for which the IC50 was > 50 µM (inactive).

For `Cc1nc(NCc2ccccn2)c2cc(-c3ccccc3)sc2n1`, the IC50 was 25.6 µM.

As for `CC1=C(c2ccc(Cl)cc2)S(=O)(=O)NC1=NCC(=O)Nc1ccc(F)cc1`, the IC50 is 17 µM.

For the compound `CSc1nc2ncn(CC(=O)Nc3cccc(Cl)c3)c(=O)c2s1`, the IC50 was 4.75 µM.

As for `O=C(Nc1ccc2c(c1)OCCO2)c1cc(CN2CCOCC2)on1`, the IC50 is > 50 µM (inactive).

Take `CC(C)Cc1nc2sc3c(NCc4ccccc4)ncnc3c2c2c1COC(C)(C)C2`: the IC50 was 4.71 µM.

As for `COc1ccc(-c2nc(CNC(=O)COc3ccc(C)cc3)cs2)cc1`, the IC50 is 36.3 µM.

For `O=C(NCc1ccccc1Cl)c1ccc2cn[nH]c2c1`, the IC50 was > 50 µM (inactive).

As to `COc1ccccc1NC(=O)c1cc(-c2ccccn2)nc2ccccc12`, the IC50 was 16.5 µM.

With `COc1ccc(NC(=O)c2ccc(Nc3nnc(C)c4ccccc34)cc2)cc1`, the IC50 was > 50 µM (inactive).

Regarding `CCn1cnc2c(-c3ccccc3)cn(CC(=O)NCc3ccc4c(c3)OCO4)c2c1=O`, the IC50 was 5 µM.

For `Cc1oc(-c2ccc(C(=O)NCC3COCCO3)cc2)nc1CN1CCc2ccccc21` (centres undefined), the IC50 is > 50 µM (inactive).

As to `CC(=O)Nc1ccc(S(=O)(=O)N2CCCC(C(=O)Nc3cccc4ccccc34)C2)cc1` (centres undefined), the IC50 was 25.5 µM.

Regarding `O=C(Nc1cccc(C(F)(F)F)c1)c1cc2c(s1)-c1ccccc1OC2`, the IC50 is 2.13 µM.

For the origin of these results see PubChem BioAssay AID1645865 (Buhrlage Lab, Dana-Farber Cancer Institute and Novartis …, 2021).
